Results from PMC8536682, “NPF activates a specific NPF receptor and regulates food intake in Pacific abalone Haliotis discus hannai” (Scientific Reports, 2021).
No end group written: not given here.

What was measured:
[1] = system: Hdh-NPFR; experiment: Ca2+ mobilization (aequorin luminescence) assay in Hdh-NPFR-transfected CHO-K1 cells; type: cell-based, Haliotis discus hannai; conditions: Fig. 3g, Fig. S7b
Method: CHO-K1 cells were maintained in DMEM-F12 Nutrient Mixture Ham supplemented with 10% FBS (Welgene) at 37 °C in 5% CO2. Cells grown in a monolayer to 60% confluency in 100 mm dishes (1.5 × 10^6 cells) were transiently transfected with plasmids using FuGENE6 transfection reagent (Promega), according to the manufacturer’s recommendations. In brief, the transfection medium was prepared by combining 600 μl of DMEM-F12 with 2 μg of pcDNA3-HA-Hdh-NPFR plasmid together with 2 μg of a Ca^2+ reporter aequorin plasmid with or without the promiscuous Gα15 expression plasmid (kind gifts from Dr. Young-Joon Kim, Gwangju Institute of Science and Technology, Gwangju, Korea) with 18 μl of FuGENE6 in a 5 ml polystyrene tube and incubated for 25 min at room temperature. The transfection mixture was added to CHO-K1 cells in 10 ml of fresh FBS-free medium and the cells were incubated at 37 °C in 5% CO2 overnight. On the day of the assay, the cells were detached from the culture dish by incubating with 3 ml of 5 mM EDTA in phosphate-buffered saline (PBS, pH 7.2; Thermo Fisher Scientific, Waltham, MA, USA) for 5 min. The cells were washed in 10 ml of phenol red-free DMEM/F-12 with 0.1% bovine serum albumin (BSA) and 1% P/S (DMEM-prf), and collected by brief centrifugation. Probenecid (1.25 mM final concentration, Invitrogen) and coelenterazine (5 μM, Gold Biotech., St. Louis, MO, USA) were added to resuspended CHO-K1 cells in 5 ml of DMEM-prf medium and the cells were gently agitated for 2.5 h using a magnetic stirrer at room temperature shielded from light. The cell suspension was diluted four times with DMEM-prf and incubated for a further 30 min. Just before the Ca^2+ mobilization assay, peptide solutions were prepared in DMEM-prf and 50 μl aliquots were dispensed into 3 or 4 wells/peptide on 96-well microplates. DMEM-prf was used as a negative control. While stirring gently, 50 μl of the cell suspension was injected into a luminescence microplate reader (Berthold Tech.) using an automated injector unit. Luminescence was recorded for 20 s and for a further 10 s after injection of DMEM-prf including 0.2% Triton X-100 to measure the total Ca^2+ response. The average luminescence from multiple replicate wells for a single concentration was calculated and normalized to the largest receptor response after subtraction of background values obtained from negative controls. Dose–response curves and EC50 values were obtained using Sigma Plot v.13 (Systat Software, Inc., San Jose, CA, USA).

[2] = system: pcDNA3-transfected HEK293 cells; experiment: CRE-Luc luciferase reporter assay in pcDNA3-transfected HEK293 cells; type: cell-based, human; conditions: pcDNA3-transfected HEK293 cells (no receptor); Fig. 3d
Method: HEK293 cells were cultured in Dulbecco’s modified Eagle medium (DMEM; Gibco, Loughborough, UK) containing 1% penicillin/streptomycin (P/S; Invitrogen) and 10% fetal bovine serum (FBS; Hyclone, GE Healthcare, Chicago, IL, USA). Sixteen hours before transfection, cultured HEK293 cells were seeded into 24-well plates (5 × 10^4 cells/well). The cells were transfected with a luciferase reporter plasmid of CRE-Luc[68] or SRE-Luc[69] using a polyethyleneimine transfection reagent (Sigma-Aldrich, St. Louis, MO, USA), along with pcDNA3-HA plasmids containing Hdh-NPFR-related receptors, human NPYR1 and NPYR2 (kindly provided by Dr. Annette G. Beck-Sickinger, Leipzig University, Germany), and a pRSV-β-galactosidase expression plasmid as an internal control (100 ng of each plasmid/well) as previously reported. After 3 h of transfection, the culture medium was replaced by new DMEM with 1% P/S and 10% FBS, and the HEK293 cells were further cultured for 30 h and then maintained in DMEM without FBS for 16 h. […] The cells were lysed with a luciferase cell culture lysis buffer (Promega, Madison, WI, USA) and luciferase activities were analyzed using a microplate-luminometer (Berthold Tech., Bad Wildbad, Germany) and normalized by the β-galactosidase values detected by an absorbance microplate reader (Tecan, Mannedorf, Switzerland) at 405 nm.

[3] = system: Hdh-NPFR; experiment: Western blot of ERK1/2 phosphorylation in Hdh-NPFR-expressing HEK293 cells; type: cell-based, Haliotis discus hannai; conditions: inhibitor 10^–5 M pre-incubated 1 h, then Hdh-NPF (10^–8, 10^–6 M) 5 min; Fig. 3f
Method: HEK293 cells were seeded into 6-well plates (0.3 × 10^6 cells/well) and transfected with 3 μg of pcDNA3-HA-Hdh-NPFR or pcDNA3 as described for the reporter assays. At 36 h post-transfection, the transfected cells were treated with Hdh-NPF (10^–9–10^–7 M), TPA (10^–7 M), or the same volume of peptide-free medium as a vehicle for 10 min. After washing twice with PBS, the cells were lysed with RIPA buffer [150 mM NaCl, 1% Triton X-100, 0.5% sodium deoxycholate, 0.1% sodium dodecyl sulfate (SDS), 50 mM Tris–Cl, pH 8.0] including protease inhibitor cocktail and PhosSTOP (Roche, Basel, Switzerland) according to the manufacturer’s recommendation. To examine signaling pathways, Hdh-NPFR-transfected cells were pre-incubated with serum-free DMEM for 6 h at 37 °C and exposed to a PKA inhibitor (H89, 10^–5 M; Sigma-Aldrich) or PKC inhibitor (Gӧ6983, 10^–5 M; Sigma-Aldrich) for a further 60 min. After replacing the medium with fresh serum-free DMEM, the cells were exposed to Hdh-NPF peptide (10^–8, 10^–6 M) for 5 min at 37 °C. The cell lysates were separated by 10% SDS–polyacrylamide gel electrophoresis and subsequently transferred to nitrocellulose membranes (Pall, Ann Arbor, MI, USA). […] The reactive bands were monitored using C-Digit 3600 Bolt Scanner (LI-COR, Lincoln, NE, USA).

Compound: YPSKPDNPGEDAPAEQLRQYLKALNEYYAIVGRPRF-NH2 [NPY-F, chimeric mixed peptide for Hdh-NPF and human NPY]
- Ca2+ mobilization response [1]: could not activate

Compound: QDAMLAPPDRPSEFRSPDQLRQYLKALNEYYAIVGRPRF-NH2 [Hdh-NPF]
- EC50 [2]: 596 nM

Compound: QLRQYLKALNEYYAIVGRPRF-NH2 [Hdh-NPF-C21, truncated Hdh-NPF peptide]
- Ca2+ mobilization response [1]: could not induce

Compound: YAIVGRPRF-NH2 [Hdh-NPF-C9, truncated Hdh-NPF peptide]
- Ca2+ mobilization response [1]: could not induce

Compound: QDAMLAPPDRPSEFRSPD-NH2 [Hdh-NPF-N18, truncated Hdh-NPF peptide]
- Ca2+ mobilization response [1]: could not induce

Compound: COc1ccc2c(c1)c(C1=C(c3c[nH]c4ccccc34)C(=O)NC1=O)cn2CCCN(C)C [Gӧ6983]
- Effect of inhibitor on Hdh-NPFR-mediated activation of ERK1/2 [3]: abolished
